Measurements as given in patent US7728146B2, “Enzyme inhibitors” (Probiodrug AG, priority 2006, dated 2010).

target: DP IV (Homo sapiens, UniProt P27487); experiment: DP IV inhibition IC50, parallel-synthesis compounds tested directly following synthesis (without purification); assay type: biochemical; design: IC50 DP4; other: tested directly following parallel synthesis, without purification; compounds of formula (Ib) from parallel synthesis, tested directly following synthesis; settings: DP IV inhibition; compounds of formula (Ib) from parallel synthesis, tested directly following synthesis (without purification); read-out: IC50
Description: Compounds were immediately tested regarding their activity as DP IV inhibitors.
Substances are screened for inhibition of dipeptidyl peptidase (DP IV) by their ability to inhibit the hydrolysis of the DP IV specific substrate Glycyl-Prolyl-4-Nitroanilide (Gly-Pro-pNA). All compounds are diluted in DMSO and IC50 will be determined with 11 serial dilutions (1:2) starting with an final concentration of 100 μM. The final DMSO concentration in the assay is 5% (v/v). The method was automated using a Tecan Genesis Freedom liquid handler and a Genius Pro (Tecan) microplate reader.
DP IV from porcine kidney (pDP IV) or recombinant human DP IV (rhDP IV) is diluted in HEPES buffer to a final activity of approximately 40-50 μU*ml^−1. The DP IV is stored in a cooling rack (4° C.) on the liquid handler.
The assay may becarried out at room temperature using Freedom liquid handler connected with a Genios Pro microplate reader. Each sample is measured in duplicate. Each sample stock solution is prediluted with DMSO in a ratio of 1:5 in a polypropylen 96-well plate. From this predilution 10 serial (1:2) dilutions in DMSO are prepared. 13.5 μl of the 11 DMSO dilutions and DMSO alone are transferred to the measurement microplate (duplicates) and 86.5 μl water, 100 μl HEPES buffer and 50 μl substrate solution are added to each well. The enzymatic reaction is started by addition of 20 μl enzyme solution to each well, and then the microplate is immediately transferred to the microplate reader.
After short mixing (20 s) the release of 4-Nitroanilin (pNA) is monitored at 405 nm for 30 cycles (approx. 18 min).
Post assay calculations are done by the Magellan (Tecan) and Graphit Software. The linear slopes are calculated for each well and averaged for the duplicates. The residue activities are calculated in relation to a sample containing only solvent instead of inhibitor and expressed in %. Residue activities are plotted against the log of inhibitor concentrations and IC50 is calculated by an 4-parameter fitting ranging from 0 to 100%.

Row | SMILES | IC50 [µM]
1 | COc1ccc(Cn2cnc(-c3ccc(Cl)cc3Cl)c2[C@H](C)N)c(OC)c1 [62b, (S)-1-[5-(2,4-Dichloro-phenyl)-3-(2,4-dimethoxy-benzyl)-3H-imidazol-4-yl]-ethylamine] | 10
2 | COc1ccc(Cn2cnc(-c3ccc(Cl)cc3Cl)c2C(C)N)cc1OC (centres unmarked) [95b, 1-[5-(2,4-Dichloro-phenyl)-3-(3,4-dimethoxy-benzyl)-3H-imidazol-4-yl]-ethylamine] | 19.9
3 | COCCn1cnc(-c2ccc(Cl)cc2Cl)c1CN [60b, C-[5-(2,4-Dichloro-phenyl)-3-(2-methoxy-ethyl)-3H-imidazol-4-yl]-methylamine] | 20.8
4 | COc1ccc(Cn2cnc(-c3ccc(Cl)cc3Cl)c2CN)cc1 [35b, C-[5-(2,4-Dichloro-phenyl)-3-(4-methoxy-benzyl)-3H-imidazol-4-yl]-methylamine] | 11.8
5 | Clc1ccc(-c2ncn(CCc3ccccc3Cl)c2C2CNC2)c(Cl)c1 [117b, 5-Azetidin-3-yl-1-[2-(2-chloro-phenyl)-ethyl]-4-(2,4-dichloro-phenyl)-1H-imidazole] | 39.7
6 | NCc1c(-c2ccc(Cl)cc2Cl)ncn1CCCN1CCCC1=O [29b, 1-{3-[5-Aminomethyl-4-(2,4-dichloro-phenyl)-imidazol-1-yl]-propyl}-pyrrolidin-2-one] | 22.6
7 | CC(C)CCCCCCn1cnc(-c2ccc(Cl)cc2Cl)c1C(C)N (centres unmarked) [51b, 1-[5-(2,4-Dichloro-phenyl)-3-(7-methyl-octyl)-3H-imidazol-4-yl]-ethylamine] | 37.9
8 | NCc1c(-c2ccc(Cl)cc2Cl)ncn1Cc1cccc(C(F)(F)F)c1F [50b, C-[5-(2,4-Dichloro-phenyl)-3-(2-fluoro-3-trifluoromethyl-benzyl)-3H-imidazol-4-yl]-methylamine] | 15.4
9 | NCc1c(-c2ccc(Cl)cc2Cl)ncn1Cc1cc(F)cc(C(F)(F)F)c1 [3b, C-[5-(2,4-Dichloro-phenyl)-3-(3-fluoro-5-trifluoromethyl-benzyl)-3H-imidazol-4-yl]-methylamine] | 2.8
10 | Cc1ccc(Cn2cnc(-c3ccc(Cl)cc3Cl)c2C(C)N)cc1 (centres unmarked) [116b, 1-[5-(2,4-Dichloro-phenyl)-3-(4-methyl-benzyl)-3H-imidazol-4-yl]-ethylamine] | 23.5
11 | NCc1c(-c2ccc(Cl)cc2Cl)ncn1CCc1ccc(Cl)cc1Cl [Example 32b, C-{5-(2,4-dichloro-phenyl)-3-[2-(2,4-dichloro-phenyl)-ethyl]-3H-imidazol-4-yl}-methylamine] | 15.4
12 | CC(N)c1c(-c2ccc(Cl)cc2Cl)ncn1CCCCCCO (centres unmarked) [34b, 6-[5-(1-Amino-ethyl)-4-(2,4-dichloro-phenyl)-imidazol-1-yl]-hexan-1-ol] | 38.8
13 | NCc1c(-c2ccc(Cl)cc2Cl)ncn1CCc1ccc(O)cc1 [113b, 4-{2-[5-Aminomethyl-4-(2,4-dichloro-phenyl)-imidazol-1-yl]-ethyl}-phenol] | 21.7
14 | NCCCc1c(-c2ccc(Cl)cc2Cl)ncn1CCc1cccc(Cl)c1 [107b, 3-[3-[2-(3-Chloro-phenyl)-ethyl]-5-(2,4-dichloro-phenyl)-3H-imidazol-4-yl]-propylamine] | 42.4
15 | NCc1c(-c2ccc(Cl)cc2Cl)ncn1Cc1ccc(Cl)c(Cl)c1 [77b, C-[3-(3,4-Dichloro-benzyl)-5-(2,4-dichloro-phenyl)-3H-imidazol-4-yl]-methylamine] | 7.3
16 | CC(O)Cn1cnc(-c2ccc(Cl)cc2Cl)c1CN (centres unmarked) [72b, 1-[5-Aminomethyl-4-(2,4-dichloro-phenyl)-imidazol-1-yl]-propan-2-ol] | 20.8
17 | NCc1c(-c2ccc(Cl)cc2Cl)ncn1CC1CCCO1 (centres unmarked) [Example 17b, C-[5-(2,4-dichloro-phenyl)-3-(tetrahydro-furan-2-ylmethyl)-3H-imidazol-4-yl]-methylamine] | 1.9
18 | NCCc1c(-c2ccc(Cl)cc2Cl)ncn1CCc1cccc(Cl)c1 [37b, 2-[3-[2-(3-Chloro-phenyl)-ethyl]-5-(2,4-dichloro-phenyl)-3H-imidazol-4-yl]-ethylamine] | 48.7
19 | C[C@H](N)c1c(-c2ccc(Cl)cc2Cl)ncn1CCc1c[nH]c2cc(F)ccc12 [110b, (S)-1-{5-(2,4-Dichloro-phenyl)-3-[2-(6-fluoro-1H-indol-3-yl)-ethyl]-3H-imidazol-4-yl}-ethylamine] | 42.4

Continued, values first:

Row | IC50 [µM] | SMILES
20 | 34.3 | NCc1c(-c2ccc(Cl)cc2Cl)ncn1CCOc1ccccc1 [100b, C-[5-(2,4-Dichloro-phenyl)-3-(2-phenoxy-ethyl)-3H-imidazol-4-yl]-methylamine]
21 | 12.7 | NCc1c(-c2ccc(Cl)cc2Cl)ncn1CCCc1ccccc1 [91b, C-[5-(2,4-Dichloro-phenyl)-3-(3-phenyl-propyl)-3H-imidazol-4-yl]-methylamine]

same assay, conditions: tested directly following parallel synthesis, without purification; read-out: IC50 DP4

Row | SMILES | IC50 [µM]
22 | COc1cccc(Cn2cnc(-c3ccc(Cl)cc3Cl)c2CN)c1 [Example 41a, C-[5-(2,4-Dichloro-phenyl)-3-(3-methoxy-benzyl)-3H-imid-azol-4-yl]-methyl-amine] | 0.1
23 | NCc1c(-c2ccc(F)cc2Cl)ncn1Cc1ccsc1 [Example 11a, C-[5-(2-Chloro-4-fluoro-phenyl)-3-thiophen-3-ylmethyl-3H-imidazol-4-yl]-methylamine] | 4.6
24 | CCCn1cnc(-c2ccc(Cl)cc2Cl)c1CN [Example 40a, C-[5-(2,4-Dichloro-phenyl)-3-pro-pyl-3H-imid-azol-4-yl]-methyl-amine] | 3.7
25 | NCc1c(-c2ccc(F)cc2Cl)ncn1Cc1cc(F)ccc1F [Example 27a, C-[5-(2-Chloro-4-fluoro-phenyl)-3-(2,5-difluoro-benzyl)-3H-imid-azol-4-yl]-methyl-amine] | 22.6
26 | NCc1c(-c2ccc(F)cc2F)ncn1Cc1ccc(F)cc1 [Example 74a, C-[5-(2,4-Difluoro-phenyl)-3-(4-fluoro-benzyl)-3H-imid-azol-4-yl]-methyl-amine] | 44.2
27 | Cn1cccc1Cn1cnc(-c2ccc(Cl)cc2Cl)c1CN [Example 64a, C-[5-(2,4-Dichloro-phenyl)-3-(1-methyl-1H-pyrrol-2-yl-methyl)-3H-imid-azol-4-yl]-methyl-amine] | 27.1
28 | NCc1c(-c2ccc(Cl)cc2Cl)ncn1Cc1ccc(Cl)cc1Cl [Example 57a, C-[3-(2,4-Dichloro-benzyl)-5-(2,4-dichloro-phenyl)-3H-imid-azol-4-yl]-methyl-amine] | 9.1

Now from value to compound:

Row | IC50 [µM] | SMILES
29 | 37.9 | Cc1ccc(-c2ncn(Cc3cc(Br)ccc3F)c2CN)c(C)c1 [Example 68a, C-[3-(5-Bro-mo-2-fluoro-benzyl)-5-(2,4-dimethyl-phenyl)-3H-imid-azol-4-yl]-methyl-amine]
30 | 30.7 | COc1ccc(-c2ncn(Cc3cc(Br)ccc3F)c2CN)c(C)c1 [Example 71a, C-[3-(5-Bro-mo-2-fluoro-benzyl)-5-(4-meth-oxy-2-methyl-phenyl)-3H-imid-azol-4-yl]-methyl-amine]
31 | 0.1 | CCOc1ccccc1Cn1cnc(-c2ccc(Cl)cc2Cl)c1CN [Example 50a, C-[5-(2,4-Dichloro-phenyl)-3-(2-ethoxy-benzyl)-3H-imid-azol-4-yl]-methyl-amine]
32 | 34.3 | Cc1ccc(Cn2cnc(-c3ccc(F)cc3Cl)c2CN)o1 [Example 4a, C-[5-(2-Chloro-4-fluo-ro-phenyl)-3-(5-meth-yl-furan-2-yl-methyl)-3H-imid-azol-4-yl]-methyl-amine]
33 | 35.2 | NCc1c(-c2ccc(F)cc2Cl)ncn1Cc1ccccc1C(F)(F)F [Example 19a, C-[5-(2-Chloro-4-fluoro-phenyl)-3-(2-tri-fluorometh-yl-benzyl)-3H-imid-azol-4-yl]-methyl-amine]
34 | 34.3 | NCc1c(-c2ccc(F)cc2Cl)ncn1Cc1cccc(Cl)c1Cl [Example 20a, C-[5-(2-Chloro-4-fluoro-phenyl)-3-(2,3-di-chloro-benzyl)-3H-imid-azol-4-yl]-meth-ylamine]
35 | 2.8 | NCc1c(-c2ccc(Cl)cc2Cl)ncn1Cc1cccc(Cl)c1Cl [Example 52a, C-[3-(2,3-Dichloro-benzyl)-5-(2,4-dichloro-phenyl)-3H-imid-azol-4-yl]-methyl-amine]
36 | 16.3 | CCOc1ccccc1Cn1cnc(-c2ccc(C)cc2C)c1CN [Example 70a, C-[5-(2,4-Dimethyl-phenyl)-3-(2-ethoxy-benzyl)-3H-imid-azol-4-yl]-methyl-amine]
37 | 3.7 | NCc1c(-c2ccc(Cl)cc2Cl)ncn1Cc1ccccc1C(F)(F)F [Example 51a, C-[5-(2,4-Dichloro-phenyl)-3-(2-tri-fluoromethyl-benzyl)-3H-imid-dazol-4-yl]-methyl-amine]
38 | 27.1 | NCc1c(-c2ccc(F)cc2Cl)ncn1Cc1ccc(F)cc1F [Example 7a, C-[5-(2-Chloro-4-fluoro-phenyl)-3-(2,4-difluoro-benzyl)-3H-imid-azol-4-yl]-methyl-amine]
